Several values for one entry are separate records, joined by “and”; a condition that tells them apart may be missing. Equal values may be shown once.
Test system: Sap9
Experiment: 6 ng/μL Sap9 in 2 mM sodium phosphate buffer
Settings: 37 °C, up to 3 h

Question: With DSHAKRHHGYKRKFHEKHHSHRGY as the sequence, how does the fragment found read?
Answer: 6–24, major and 7–24, major and 13–24, major and 14–24, major

Reference: publication PMC7391080 (2020)
